From patent US20240124520A1, “N-ACYLATED HISTIDINE DIPEPTIDES AS ANTICANCER AGENTS” (THE BOARD OF TRUSTEES OF THE LELAND STANFORD JUNIOR …, priority 2019, published 2024)
pIC50: −log10 of the molar value. Non-standard residues stand in square brackets, D forms with d. Residues, ends and D or L forms follow the SMILES beside them. *: point of attachment. Palmitoyl = CCCCCCCCCCCCCCCC(=O)*

How the values were obtained:
Format in all cases: cell-based
[1] = test system: MDA-MB-468 triple-negative human breast cancer cells; assay: Cell Titer Blue in vitro cell viability assay, MDA-MB-468; conditions: 72 h, MDA-MB-468 (DMEM), 3 days at 37° C.
Method: (§1) FIG. 9: Dose Response curve for MBC0179 with MDA-MB-468 cells. Compound MBC0179 was incubated with MDA-MB-468 triple-negative human breast cancer cells at the indicated concentrations for 3 days at 37° C. prior to Cell Titer Blue fluorescence-based cell viability assay. Normalized cell viability data, expressed as a percentage, are averaged from three biological replicates and standard error represented by error bars for each averaged data point (empty squares). The compound concentrations are represented on log scale on the x-axis in μM units. Data were analyzed using free software called DrFit, as described in Nature Scientific Reports, Article number: 14701, (2015). […]
(§2) The Cell Titer Blue reagent (available from Promega, Inc.) is a buffered solution containing resazurin, a compound that is converted to resorufin, a detectable fluorescent product, by metabolically active cells. The fluorescence intensity of resorufin product therefore serves as a proportional measure of the number of viable cells, permitting changes in cell viability within cancer or other cell lines to be monitored in response to the addition of cytotoxic or cytostatic agents. […] Metastases to the lungs may be conveniently quantified by a well-established clonogenic assay. […]

[2] = test system: A549 human lung cancer cells; assay: Cell Titer Blue in vitro cell viability assay, A549; conditions: 72 h, A549 (DMEM), 3 days at 37° C.
Method: as §1, with “13:” for “9:”, “A549” for “MDA-MB-468”, “A549” for “MDA-MB-468 triple-negative”, “lung” for “breast”
as §2

[3] = test system: MCF7, estrogen receptor positive, human breast cancer cells; assay: Cell Titer Blue in vitro cell viability assay, MCF7; conditions: 72 h, MCF7 (DMEM), 3 days at 37° C.
Method: as §1, with “8:” for “9:”, “MCF7” for “MDA-MB-468”, “MCF7, estrogen receptor positive,” for “MDA-MB-468 triple-negative”
as §2

CCCCCCCCCCCCCCCC(=O)N[C@H](Cc1c[nH]cn1)C(=O)N[C@@H](C(=O)OCC)C(C)C [Compound 5, N-[N-(1-oxohexadecyl)-D-histidyl]-D-valine ethyl ester] (Palmitoyl-[dH]-[dV]-OEt)
pIC50 [1]: 4.80
pIC50 [2]: 4.98
pIC50 [3]: 3.45
